# In patent US20200405708A1, “TREATMENT OF HEREDITARY ANGIOEDEMA” (Attune Pharmaceuticals, Inc., priority 2018, published 2020):
# Several values for one entry are separate records, joined by “and”; a condition that tells them apart may be missing. Equal entries are not always repeated. Entries after “also recorded” stand apart in the source; their conditions may differ.
# Key:
# cytochrome P450 (CYP) = experiment: cytochrome P450 inhibition; format: in vitro ADME
# [1] = 14-day non-GLP rat and monkey toxicology studies; format: in vivo; details: daily doses of 100 or 300 mg/kg
# Protocol: (§1) Selectivity was evaluated by biochemical inhibition on plasma kallikrein relative to other serine proteases, including tissue kallikrein 5, plasmin, Factor Xa, Factor VIIa, thrombin, and tissue plasminogen activator (tPA). Potency was evaluated by biochemical inhibition and contact activation assays in human plasma. Pharmacokinetic exposure was evaluated in monkeys after a single oral administration of Compound A at 15 mg/kg. The no-observed-adverse-effect-level (NOAEL) was evaluated in 14-day non-GLP rat and monkey toxicology studies; animals were given daily doses of 100 or 300 mg/kg.
# [2] = 28-day repeat dose general toxicity study in monkeys; format: in vivo, monkey
# Protocol: FIG. 8. Graphic representation of 28-day repeat exposure in monkey toxicology study (NOAEL (100 mg/kg/day) at Day 28.
# [3] = 28-day repeat dose general toxicity study in rats
# [4] = toxicology and genotoxicity studies
# Excerpt: FIG. 10. A table showing toxicology/genotoxicity of Compound A.
# [5] = bioavailability after single oral administration, monkeys; format: in vivo, monkey; details: single oral 30 mg/kg
# [6] = metabolism and pharmacokinetics studies of single oral dosing, all species; format: in vivo
# Protocol: (§2) FIG. 7. A table showing metabolism and pharmacokinetics results of single oral dosing of Compound A. Metabolism study was conducted with radiolabeled [^14C] Compound A.
# plasma kallikrein [7] = target: T1, plasma kallikrein (Homo sapiens, UniProt P03952); experiment: contact activation assay in human plasma (ex vivo); format: biochemical; set-up: from tissue; host or cells: human plasma
# Protocol: as §1
# Target sequence in this assay (P03952 391-638 limits assumed): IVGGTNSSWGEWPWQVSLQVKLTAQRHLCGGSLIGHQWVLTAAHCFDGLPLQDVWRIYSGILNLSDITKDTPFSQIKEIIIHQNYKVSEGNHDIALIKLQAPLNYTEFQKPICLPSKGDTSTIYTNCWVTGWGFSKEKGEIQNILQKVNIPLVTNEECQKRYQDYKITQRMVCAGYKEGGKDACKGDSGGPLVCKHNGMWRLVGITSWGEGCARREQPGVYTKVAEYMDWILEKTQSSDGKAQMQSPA
# Target sequence in this assay (P03952 20-390 partner limits assumed): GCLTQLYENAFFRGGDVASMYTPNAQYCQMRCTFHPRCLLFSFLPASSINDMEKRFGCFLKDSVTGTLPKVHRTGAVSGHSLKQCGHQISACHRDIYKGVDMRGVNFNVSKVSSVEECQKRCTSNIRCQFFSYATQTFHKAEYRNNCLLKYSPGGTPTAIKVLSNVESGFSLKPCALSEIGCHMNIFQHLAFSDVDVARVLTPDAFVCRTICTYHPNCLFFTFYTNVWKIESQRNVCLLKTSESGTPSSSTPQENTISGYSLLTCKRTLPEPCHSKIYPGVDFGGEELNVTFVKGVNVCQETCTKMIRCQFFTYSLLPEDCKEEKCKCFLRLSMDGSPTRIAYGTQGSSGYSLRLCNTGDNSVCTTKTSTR
# plasma kallikrein [8] = target: T1, plasma kallikrein; experiment: biochemical inhibition assay of plasma kallikrein
# Protocol: as §1
# Target sequence in this assay (P03952 20-638): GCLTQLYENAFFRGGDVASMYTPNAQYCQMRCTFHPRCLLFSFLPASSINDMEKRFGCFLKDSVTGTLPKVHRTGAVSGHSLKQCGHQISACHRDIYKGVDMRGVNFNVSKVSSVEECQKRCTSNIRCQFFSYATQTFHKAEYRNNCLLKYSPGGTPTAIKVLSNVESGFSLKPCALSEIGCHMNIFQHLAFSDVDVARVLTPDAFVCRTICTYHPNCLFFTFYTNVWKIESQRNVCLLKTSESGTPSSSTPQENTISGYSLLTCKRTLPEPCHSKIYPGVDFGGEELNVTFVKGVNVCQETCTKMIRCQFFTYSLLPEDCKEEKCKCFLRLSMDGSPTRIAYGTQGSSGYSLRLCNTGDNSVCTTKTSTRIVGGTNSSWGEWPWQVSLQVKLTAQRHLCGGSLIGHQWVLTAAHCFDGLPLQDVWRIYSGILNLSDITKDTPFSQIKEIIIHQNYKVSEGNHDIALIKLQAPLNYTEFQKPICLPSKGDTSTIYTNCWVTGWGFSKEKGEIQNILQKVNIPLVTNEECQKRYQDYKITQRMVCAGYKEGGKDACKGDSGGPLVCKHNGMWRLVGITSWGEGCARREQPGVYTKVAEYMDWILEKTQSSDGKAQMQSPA
# [9] = recovery of radiolabeled [14C] Compound A after single oral dosing in rats; format: in vivo, rat
# Protocol: as §2
# [10] = bioavailability after single oral administration, dogs; format: in vivo, dog; details: single oral 30 mg/kg
# [11] = system: tissue kallikrein 5, tissue kallikrein 7, tissue kallikrein 14, plasmin, Factor Xa, Factor VIIa, thrombin, tissue plasminogen activator (tPA); experiment: selectivity by biochemical inhibition versus other serine proteases
# Protocol: as §1
# [12] = safety and tolerability in single-ascending-dose study, healthy male participants; format: in vivo, human; details: all 6 dose cohorts
# Protocol: (§3) A randomized, double-blind, placebo-controlled single ascending dose and crossover food effect study
# (§4) 48 healthy male participants (6 active:2 placebo in each of the 6 dose cohorts) received a single daily dose of Compound A 50 mg, 100 mg, 150 mg, 200 mg, 400 mg, or 800 mg. Subjects in the 100 mg dose cohort received first dose of Compound A under fasted condition in period 1 and after a 7-day washout, a second dose 30 minutes after the start of a high fat, high caloric meal in period 2. Serial blood draws were collected to calculate PK parameters, including area under the curve (AUC) from time zero to infinity (AUC), maximum concentration (Cmax), time of maximum concentration (Tmax), and half-life. Safety measures including treatment-emergent adverse events (TEAEs) were assessed.
# [13] = single-ascending-dose and food effect pharmacokinetics in healthy male participants; format: in vivo; set-up: Mean C24: unit not given here; details: human; for AUCinf, geometric mean (geometric % CV) / Cmax, geometric mean (geometric % CV): n = 6; for Mean Cmax: in ng/mL; for Mean AUCinf: in ng·h/mL
# Protocol: as §3, §4
# [14] = bioavailability after single oral administration, rats; format: in vivo, rat; details: single oral 30 mg/kg
# [15] = single dose safety pharmacology in rat and monkey; format: in vivo
# Excerpt: FIG. 9. A table showing safety pharmacology of Compound A single dose in rat and monkey.
# [16] = pharmacokinetic exposure after single oral dose in monkeys; format: in vivo, monkey
# Protocol: as §1
# [17] = 100 mg, fed (high fat, high caloric meal)
# [18] = monkeys, single oral dose 15 mg/kg
molecule,measurement,setting,value
"Cc1cc(N)nc(C)c1CNC(=O)c1ccnc(Cc2ccc3ncc(Cl)cc3c2)c1 [Compound A, N-((6-amino-2,4-dimethylpyridin-3-yl)methyl)-2-((3-chloroquinolin-6-yl)methyl)isonicotinamide]",inhibition of P450 enzymes,cytochrome P450 (CYP),does not significantly inhibit P450 enzymes
same,no-observed-adverse-effect-level (NOAEL),[1],300 mg/kg
same,Cmax exposure relative to EC50,"[2]; NOAEL dose, day 28",> 4500 ×
same,24-h exposure relative to EC90,"[2]; monkey, in vivo, 100 mg/kg/day",20 fold
same,Cmax exposure relative to EC90,"[2]; monkey, in vivo, 100 mg/kg/day",> 600 fold
same,findings at high-dose level,"[2]; monkey, in vivo, 300 mg/kg/day",adverse findings in monkeys reversed upon dose reduction to 150 mg/kg/day dose
same,NOAEL,"[2]; monkeys, 28-day repeat dose",100 mg/kg/day
same,findings at high-dose level,"[3]; 300 mg/kg/day, not considered adverse",decreases in body weight and food consumption
same,NOAEL,[3]; 28-day repeat dose,300 mg/kg/day
same,genotoxicity or coagulation issues,[4],no genotoxicity or coagulation issues were noted
same,bioavailability,[5],> 40%
same,bioavailability (in words),[6],good bioavailability in all species
same,fold more potent than C1-INH at inhibiting plasma kallikrein,plasma kallikrein [7]; contact activation assay,11 fold and ~10 fold
same,EC50,plasma kallikrein [7]; human plasma,8.2 nM
same,EC90,plasma kallikrein [7]; human plasma,61.6 nM
same,IC50,plasma kallikrein [8],2.7 nM
same,IC90,plasma kallikrein [8],16.2 nM
same,fold more potent than C1-INH at inhibiting plasma kallikrein,plasma kallikrein [8]; biochemical inhibition assay,9 fold and ~10 fold
same,recovery of radiolabeled compound (in words),[9],comprehensive recovery of radiolabeled Compound A
same,recovery,[9]; intact and bile duct cannulated rats,99%
same,bioavailability,[10],> 40%
same,selectivity for plasma kallikrein versus other closely related serine proteases,[11],> 2000 fold
same,drug-related TEAEs and serious AEs,[12],"No drug-related TEAEs and no serious AEs; also recorded: no moderate or severe TEAEs, no drug-related TEAEs, no SAEs, and no dose limiting toxicity"
same,safety and tolerability (in words),[12],generally safe and well tolerated
same,severity of TEAEs,[12],all TEAEs were mild (grade 1)
same,number of TEAEs observed,[12]; 50-800 mg single dose,29
same,"AUCinf % Ratio, fed vs. fasted",[13]; 100 mg,150.3%
same,"Cmax % Ratio, fed vs. fasted",[13]; 100 mg,128.5%
same,"AUCinf, geometric mean (geometric % CV)","[13]; 100 mg, fasted",2573 (135.1) ng*hr/mL
same,"Cmax, geometric mean (geometric % CV)","[13]; 100 mg, fasted",297 (236.1) ng/mL
same,"AUCinf, geometric mean (geometric % CV)",[13]; [17],3866 (16.1) ng*hr/mL
same,"Cmax, geometric mean (geometric % CV)",[13]; [17],382 (35.8) ng/mL
same,food effect on PK,"[13]; 100 mg, high fat meal vs fasted",Minimal food effect
same,dose proportionality of AUCinf and Cmax / systemic exposure,"[13]; 50-800 mg, fasted",increased proportionally with dose; also recorded: largely proportional to dose
same,"AUCinf, mean (% CV)","[13]; fasted, 50 mg",2056 (20.5)^ ng*hr/mL
same,"Cmax, mean (% CV)","[13]; fasted, 50 mg",244 (20.1) ng/mL
same,"Half-Life, mean (% CV)","[13]; fasted, 50 mg",6.5 (24.1) Hours
same,"Tmax, mean (% CV)","[13]; fasted, 50 mg",1.8 (43.3) Hours
same,"AUCinf, mean (% CV)","[13]; fasted, 100 mg",3325 (47.3) ng*hr/mL
same,"Cmax, mean (% CV)","[13]; fasted, 100 mg",449 (59.3) ng/mL
same,"Half-Life, mean (% CV)","[13]; fasted, 100 mg",8.0 (33.0) Hours
same,"Tmax, mean (% CV)","[13]; fasted, 100 mg",2.8 (109.7) Hours
same,"AUCinf, mean (% CV)","[13]; fasted, 150 mg",8569 (37.9)^ ng*hr/mL
same,"Cmax, mean (% CV)","[13]; fasted, 150 mg",848 (33.9) ng/mL
same,"Half-Life, mean (% CV)","[13]; fasted, 150 mg",9.7 (15.4) Hours
same,"Tmax, mean (% CV)","[13]; fasted, 150 mg",1.9 (19.6) Hours
same,"Half-Life, mean (% CV)","[13]; fasted, 200 mg",9.8 (11.3) Hours
same,"Tmax, mean (% CV)","[13]; fasted, 200 mg",2.3 (50.2) Hours
same,"AUCinf, mean (% CV)","[13]; fasted, 200 mg (5 subjects)",8382 (30.2)^ ng*hr/mL
same,"Cmax, mean (% CV)","[13]; fasted, 200 mg (5 subjects)",693 (43.0) ng/mL
same,"AUCinf, mean (% CV)","[13]; fasted, 400 mg",14010 (21.1) ng*hr/mL
same,"Cmax, mean (% CV)","[13]; fasted, 400 mg",1351 (18.8) ng/mL
same,"Half-Life, mean (% CV)","[13]; fasted, 400 mg",9.5 (9.9) Hours
same,"Tmax, mean (% CV)","[13]; fasted, 400 mg",2.4 (57.7) Hours
same,"AUCinf, mean (% CV)","[13]; fasted, 800 mg",30180 (35.7) ng*hr/mL
same,"Cmax, mean (% CV)","[13]; fasted, 800 mg",3015 (32.0) ng/mL
same,"Half-Life, mean (% CV)","[13]; fasted, 800 mg",9.0 (9.9) Hours
same,"Tmax, mean (% CV)","[13]; fasted, 800 mg",2.9 (33.3) Hours
same,Mean C24,"[13]; fasted, dose 50",19.3
same,Mean Cmax,"[13]; fasted, dose 50",244
same,Mean AUCinf,"[13]; fasted, dose 50",2056
same,Mean C24,"[13]; fasted, dose 100",27.7
same,Mean Cmax,"[13]; fasted, dose 100",449
same,Mean AUCinf,"[13]; fasted, dose 100",3325
same,Mean C24,"[13]; fasted, dose 150",83.6
same,Mean Cmax,"[13]; fasted, dose 150",848
same,Mean AUCinf,"[13]; fasted, dose 150",8569
same,Mean C24,"[13]; fasted, dose 200",69.2
same,Mean Cmax,"[13]; fasted, dose 200",693
same,Mean AUCinf,"[13]; fasted, dose 200",8382
same,Mean C24,"[13]; fasted, dose 400",124.0
same,Mean Cmax,"[13]; fasted, dose 400",1351
same,Mean AUCinf,"[13]; fasted, dose 400",14010
same,Mean C24,"[13]; fasted, dose 800",274.0
same,Mean Cmax,"[13]; fasted, dose 800",3015
same,Mean AUCinf,"[13]; fasted, dose 800",30180
same,bioavailability,[14],> 40%
same,"mortality or adverse effects on CNS, respiratory, cardiovascular functions",[15],"no mortality or adverse effects were observed on central nervous system, respiratory, and cardiovascular functions"
same,24-h exposure relative to EC90,"[16]; monkey, in vivo, po, 15 mg/kg",4 fold
same,Cmax exposure relative to EC90,"[16]; monkey, in vivo, po, 15 mg/kg",25 fold
same,24-hour exposure (C24) relative to EC50,[16]; [18],30 fold
same,Cmax exposure relative to EC50,[16]; [18],> 180 ×
same,fold below the no-observed-adverse-effect-level (NOAEL),[16]; single dose 15 mg/kg,20 fold
"C1-INH: C1 inhibitor (C1-esterase inhibitor, serpin), which inhibits the activity of plasma kallikrein; comparator [Compound C1-INH]",EC50,plasma kallikrein [7]; human plasma,92.4 nM
same,IC50,plasma kallikrein [8],25.4 nM
same,IC90,plasma kallikrein [8],157 nM
